Consider 27 compounds from patent US9499535B2, “Kinase inhibitors” (ORIGENIS GMBH, priority 2011, dated 2016).

For one experiment, the target named is MYLK (Homo sapiens, UniProt Q15746). The experiment can be described thus: MYLK assay (LanthaScreen Eu Kinase Binding Assay). As to conditions: 5 nM MYLK, 30 nM tracer 236, RT 1 h; read-out: MYLK Activites: IC50. In a few lines: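 TR-FRET tracer-displacement binding: 5 nM MYLK with 2 nM Eu-anti-GST antibody and 30 nM tracer 236 in kinase buffer A, 1 h at RT. The 665/615 nm emission ratio was plotted against inhibitor concentration; IC50 from variable-slope sigmoidal fit.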
Sequence of MYLK (Q15746 whole entry): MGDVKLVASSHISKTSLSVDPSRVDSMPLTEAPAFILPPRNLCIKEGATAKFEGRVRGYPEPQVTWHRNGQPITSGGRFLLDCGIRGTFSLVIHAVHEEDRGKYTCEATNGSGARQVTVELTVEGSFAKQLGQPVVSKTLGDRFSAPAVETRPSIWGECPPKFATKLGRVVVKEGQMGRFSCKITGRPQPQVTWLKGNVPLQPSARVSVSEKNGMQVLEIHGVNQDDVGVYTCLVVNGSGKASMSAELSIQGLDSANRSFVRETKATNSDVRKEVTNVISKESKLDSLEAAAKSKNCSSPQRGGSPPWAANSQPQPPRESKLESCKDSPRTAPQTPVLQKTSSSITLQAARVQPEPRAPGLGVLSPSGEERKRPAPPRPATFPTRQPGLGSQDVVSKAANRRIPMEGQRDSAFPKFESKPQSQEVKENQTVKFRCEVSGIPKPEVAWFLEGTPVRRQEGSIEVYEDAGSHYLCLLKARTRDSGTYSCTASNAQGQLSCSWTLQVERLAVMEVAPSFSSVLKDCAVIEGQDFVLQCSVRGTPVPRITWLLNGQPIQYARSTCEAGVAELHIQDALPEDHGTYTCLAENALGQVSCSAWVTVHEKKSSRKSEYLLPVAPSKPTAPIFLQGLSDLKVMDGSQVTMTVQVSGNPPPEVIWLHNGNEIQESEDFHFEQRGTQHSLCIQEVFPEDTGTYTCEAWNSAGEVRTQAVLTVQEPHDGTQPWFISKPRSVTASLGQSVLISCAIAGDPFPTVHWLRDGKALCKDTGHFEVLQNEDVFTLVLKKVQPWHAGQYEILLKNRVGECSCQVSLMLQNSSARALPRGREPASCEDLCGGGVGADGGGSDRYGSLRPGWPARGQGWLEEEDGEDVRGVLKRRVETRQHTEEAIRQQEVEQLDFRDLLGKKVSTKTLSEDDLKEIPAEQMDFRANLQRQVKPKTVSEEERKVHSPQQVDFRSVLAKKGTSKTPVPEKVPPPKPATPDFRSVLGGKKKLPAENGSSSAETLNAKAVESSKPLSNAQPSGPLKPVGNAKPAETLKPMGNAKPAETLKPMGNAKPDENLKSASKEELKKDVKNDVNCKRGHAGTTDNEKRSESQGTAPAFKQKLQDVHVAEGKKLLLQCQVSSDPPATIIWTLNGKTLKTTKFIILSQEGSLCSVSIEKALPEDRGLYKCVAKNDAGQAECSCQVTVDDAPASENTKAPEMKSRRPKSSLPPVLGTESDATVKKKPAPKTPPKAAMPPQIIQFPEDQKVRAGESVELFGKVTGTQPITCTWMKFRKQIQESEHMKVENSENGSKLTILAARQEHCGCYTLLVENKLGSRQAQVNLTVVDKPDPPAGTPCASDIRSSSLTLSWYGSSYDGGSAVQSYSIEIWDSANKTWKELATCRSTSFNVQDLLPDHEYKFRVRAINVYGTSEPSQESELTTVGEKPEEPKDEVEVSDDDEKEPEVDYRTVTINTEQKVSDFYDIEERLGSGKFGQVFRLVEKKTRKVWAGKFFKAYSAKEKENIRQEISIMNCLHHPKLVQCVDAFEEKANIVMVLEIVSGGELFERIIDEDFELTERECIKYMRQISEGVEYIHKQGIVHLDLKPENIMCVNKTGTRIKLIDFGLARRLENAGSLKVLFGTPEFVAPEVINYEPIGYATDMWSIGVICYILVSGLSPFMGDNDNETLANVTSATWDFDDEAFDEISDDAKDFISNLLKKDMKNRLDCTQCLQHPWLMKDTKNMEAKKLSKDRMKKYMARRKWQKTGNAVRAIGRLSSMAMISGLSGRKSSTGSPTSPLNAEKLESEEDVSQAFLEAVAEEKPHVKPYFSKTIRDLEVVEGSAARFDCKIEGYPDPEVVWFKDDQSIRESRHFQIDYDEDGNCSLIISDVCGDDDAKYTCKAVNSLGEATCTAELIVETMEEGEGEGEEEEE
For orientation: TR-FRET usually uses a lanthanide donor and a delayed reading to cut background.

Another experiment concerns the target LRRK2 (Homo sapiens, UniProt Q5S007). The experiment can be described thus: LRRK2 assay (LanthaScreen Eu Kinase Binding Assay). To be noted: 5 nM LRRK2, 10 nM tracer 236, RT 1 h; read-out: LRRK2 Activites: IC50. In a few lines:
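IC50 was derived from a sigmoidal dose-response fit with variable slope, plotting emission ratio against inhibitor concentration. The read-out is loss of FRET between a europium-labelled anti-tag antibody on the kinase and a tracer displaced by inhibitor.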

Another experiment deals with T1, SYK kinase (Homo sapiens, UniProt P43405).
T1 construct: purchased Invitrogen, Carlsbad
Briefly: SYK assay (OMNIA Kinase Assay, Invitrogen). Format: biochemical. To be noted: apparent Ki calculated from the IC50 using the Cheng-Prusoff equation; 1 mM ATP, 10 μM Peptide Substrate; read-out: SYK Activities: Ki. Summed up:
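Reaction velocities were measured from kinetic fluorescence reads (360/485 nm, every 30 s over 30 min) of Mg2+-chelated SOX signal. Conditions were 1 mM ATP, 10 μM Omnia Tyr 7 peptide and 0.2 mM DTT at 30° C. Sigmoidal IC50 fits were converted to apparent Ki using Cheng-Prusoff.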

Sequence of LRRK2 (Q5S007 970-2527 limits assumed): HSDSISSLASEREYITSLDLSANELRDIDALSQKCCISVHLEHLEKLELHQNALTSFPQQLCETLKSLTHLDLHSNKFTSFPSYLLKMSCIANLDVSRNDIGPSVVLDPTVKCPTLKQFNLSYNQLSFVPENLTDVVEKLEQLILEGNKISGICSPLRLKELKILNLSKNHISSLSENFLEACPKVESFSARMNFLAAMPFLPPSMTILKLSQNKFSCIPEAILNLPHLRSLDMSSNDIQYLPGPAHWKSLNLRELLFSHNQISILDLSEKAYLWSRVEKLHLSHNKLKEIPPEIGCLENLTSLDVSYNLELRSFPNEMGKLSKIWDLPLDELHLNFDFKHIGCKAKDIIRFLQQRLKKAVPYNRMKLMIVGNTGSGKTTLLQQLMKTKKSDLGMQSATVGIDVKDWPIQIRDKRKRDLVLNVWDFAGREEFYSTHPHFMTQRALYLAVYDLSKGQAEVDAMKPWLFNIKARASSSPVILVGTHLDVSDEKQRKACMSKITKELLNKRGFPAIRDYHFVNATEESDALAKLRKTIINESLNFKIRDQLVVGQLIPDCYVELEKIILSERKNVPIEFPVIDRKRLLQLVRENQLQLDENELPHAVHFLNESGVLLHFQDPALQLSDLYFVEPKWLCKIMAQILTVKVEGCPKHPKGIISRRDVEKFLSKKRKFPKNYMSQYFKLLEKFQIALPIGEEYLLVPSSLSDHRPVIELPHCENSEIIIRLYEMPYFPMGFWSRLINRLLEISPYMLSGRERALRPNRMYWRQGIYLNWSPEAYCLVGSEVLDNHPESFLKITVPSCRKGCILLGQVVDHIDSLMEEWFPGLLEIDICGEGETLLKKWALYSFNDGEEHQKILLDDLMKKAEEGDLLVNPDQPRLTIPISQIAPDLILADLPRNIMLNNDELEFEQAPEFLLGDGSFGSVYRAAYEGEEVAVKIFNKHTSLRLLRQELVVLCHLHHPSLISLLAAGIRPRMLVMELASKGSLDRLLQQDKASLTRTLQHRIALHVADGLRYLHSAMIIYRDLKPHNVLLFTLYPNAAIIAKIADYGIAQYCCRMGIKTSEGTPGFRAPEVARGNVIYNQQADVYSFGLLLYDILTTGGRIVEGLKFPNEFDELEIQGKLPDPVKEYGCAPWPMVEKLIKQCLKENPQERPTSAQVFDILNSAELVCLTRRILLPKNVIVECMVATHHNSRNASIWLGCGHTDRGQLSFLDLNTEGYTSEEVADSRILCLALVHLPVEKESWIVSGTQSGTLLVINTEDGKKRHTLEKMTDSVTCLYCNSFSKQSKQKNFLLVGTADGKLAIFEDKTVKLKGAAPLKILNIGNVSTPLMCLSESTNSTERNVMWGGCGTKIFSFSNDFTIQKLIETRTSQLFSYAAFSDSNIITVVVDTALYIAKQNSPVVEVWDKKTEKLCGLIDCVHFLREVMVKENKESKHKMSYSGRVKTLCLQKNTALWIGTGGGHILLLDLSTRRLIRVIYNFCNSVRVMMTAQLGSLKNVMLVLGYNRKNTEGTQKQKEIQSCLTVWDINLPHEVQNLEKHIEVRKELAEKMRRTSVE

Take `COc1ccc2nc(Nc3cccc(N4CCN(C)CC4)c3)c3n[nH]cc3c2c1` [Example #228, (8-Methoxy-2H-pyrazolo[3,4-c]quinolin-4-yl)-[3-(4-methyl-piperazin-1-yl)-phenyl]-amine]: the IC50 at MYLK is less than 5 µM; on LRRK2, 0.1 to 1 µM. For the same compound, on SYK kinase, the Ki is 0.01 to 0.1 µM.
On to `COc1ccc2nc(Nc3cccc(OCCN4CCNCC4)c3)c3n[nH]cc3c2c1` [Example #229, (8-Methoxy-2H-pyrazolo[3,4-c]quinolin-4-yl)-[3-(2-piperazin-1-yl-ethoxy)-phenyl]-amine], for which the half-maximal inhibitory concentration (IC50) on MYLK is less than 5 µM; at LRRK2 it was 0.1 to 1 µM. Besides, the Ki at SYK kinase was 0.1 to 1 µM.
On to `COc1ccc2nc(Nc3cnc4c(c3)CN(C)CC4)c3n[nH]cc3c2c1` [Example #230, (8-Methoxy-2H-pyrazolo[3,4-c]quinolin-4-yl)-(6-methyl-5,6,7,8-tetrahydro-[1,6]naphthyridin-3-yl)-amine], for which the IC50 on MYLK is less than 5 µM; on LRRK2, 0.1 to 1 µM. Also, at SYK kinase, the Ki was 0.1 to 1 µM.
As to `COc1ccc2nc(Nc3ccc(C(=O)N4CCOCC4)cc3)c3n[nH]cc3c2c1` [Example #232, [4-(8-Methoxy-2H-pyrazolo[3,4-c]quinolin-4-ylamino)-phenyl]-morpholin-4-yl-methanone], the IC50 at MYLK is less than 5 µM; at LRRK2, 0.1 to 1 µM. Besides, the Ki on SYK kinase was 0.01 to 0.1 µM.
As for `COc1ccc2nc(Nc3ccc(CN4CCCC4)cc3)c3n[nH]cc3c2c1` [Example #234, (8-Methoxy-2H-pyrazolo[3,4-c]quinolin-4-yl)-(4-pyrrolidin-1-ylmethyl-phenyl)-amine], the IC50 at MYLK is less than 5 µM; on LRRK2, 0.01 to 0.1 µM. In addition, the Ki at SYK kinase is 0.01 to 0.1 µM.
For `COc1ccc2nc(Nc3ccc(C(=O)N4CCN(C)CC4)cc3)c3n[nH]cc3c2c1` [Example #235, (4-((8-methoxy-2H-pyrazolo[3,4-c]quinolin-4-yl)amino)phenyl)(4-methylpiperazin-1-yl)methanone], the half-inhibitory concentration (IC50) was less than 5 µM at MYLK and 0.01 to 0.1 µM at LRRK2. Moreover, the Ki on SYK kinase was 0.01 to 0.1 µM.
Consider `COc1ccc2nc(Nc3ccc(CN4CCOCC4)cc3)c3n[nH]cc3c2c1` [Example #237, (8-Methoxy-2H-pyrazolo[3,4-c]quinolin-4-yl)-(4-morpholin-4-ylmethyl-phenyl)-amine], for which the half-inhibitory concentration (IC50) was less than 5 µM on MYLK and 0.01 to 0.1 µM at LRRK2. The Ki on SYK kinase is 0.01 to 0.1 µM.
Take `COc1ccc2nc(Nc3ccc(CN4CCN(C)CC4)cc3)c3n[nH]cc3c2c1` [Example #238, (8-Methoxy-2H-pyrazolo[3,4-c]quinolin-4-yl)-[4-(4-methyl-piperazin-1-ylmethyl)-phenyl]-amine]: the IC50 was less than 5 µM at MYLK and 0.1 to 1 µM on LRRK2. In addition, the Ki on SYK kinase is 0.01 to 0.1 µM.
For the compound `CCN1CCN(c2ccc(Nc3nc4c(OC)cccc4c4c[nH]nc34)cc2)CC1` [Example #239, [4-(4-Ethyl-piperazin-1-yl)-phenyl]-(6-methoxy-2H-pyrazolo[3,4-c]quinolin-4-yl)-amine], the IC50 is less than 5 µM on MYLK and 0.1 to 1 µM at LRRK2. On SYK kinase, the Ki was 0.01 to 0.1 µM.
On to `CCN1CCN(c2ccc(Nc3nc4ccc(OC)cc4c4c[nH]nc34)cc2F)CC1` [Example #240, [4-(4-ethyl-piperazin-1-yl)-3-fluorophenyl]-(8-methoxy-2H-pyrazolo[3,4-c]quinolin-4-yl)-amine], for which the IC50 is less than 5 µM on MYLK and 0.01 to 0.1 µM on LRRK2. In addition, at SYK kinase, the Ki is 0.01 to 0.1 µM.
Turning to `COc1cccc2c1nc(Nc1ccc3c(c1)NC(=O)CCC3)c1n[nH]cc12` [Example #241, 8-((6-methoxy-2H-pyrazolo[3,4-c]quinolin-4-yl)amino)-4,5-dihydro-1H-benzo[b]azepin-2(3H)-one], the IC50 was less than 5 µM at MYLK and 0.1 to 1 µM on LRRK2. Also, on SYK kinase, the Ki is 0.01 to 0.1 µM.
As to `COc1cccc2c1nc(Nc1ccc3[nH]cnc3c1)c1n[nH]cc12` [Example #242, (1H-benzoimidazol-5-yl)-(6-methoxy-2H-pyrazolo[3,4-c]quinolin-4-yl)-amine], the IC50 was less than 5 µM on MYLK and 0.1 to 1 µM at LRRK2. For the same compound, the Ki on SYK kinase is 0.01 to 0.1 µM.
As to `COc1cccc2nc(Nc3ccc(N4CCN(C5CC5)CC4)cc3)c3n[nH]cc3c12` [Example #243, [4-(4-cyclopropyl-piperazin-1-yl)-phenyl]-(9-methoxy-2H-pyrazolo[3,4-c]quinolin-4-yl)-amine], the IC50 on MYLK was less than 5 µM; at LRRK2, 0.1 to 1 µM. Besides, the Ki on SYK kinase is 0.01 to 0.1 µM.
As to `COc1ccc2nc(Nc3ccc(OCCN(C)C)nc3)c3n[nH]cc3c2c1` [Example #245, [6-(2-Dimethylamino-ethoxy)-pyridin-3-yl]-(8-methoxy-2H-pyrazolo[3,4-c]quinolin-4-yl)-amine], the IC50 at MYLK is less than 5 µM; on LRRK2, 0.1 to 1 µM. In addition, the Ki on SYK kinase was 0.1 to 1 µM.
As for `COc1cccc2c1nc(Nc1ccc(N3CCOCC3)c(F)c1)c1n[nH]cc12` [Example #246, (3-Fluoro-4-morpholin-4-yl-phenyl)-(6-methoxy-2H-pyrazolo[3,4-c]quinolin-4-yl)-amine], the IC50 at MYLK is less than 5 µM; at LRRK2 it was 0.1 to 1 µM. Further, the Ki at SYK kinase is less than 0.01 µM.
In the case of `COc1cccc2c1nc(Nc1ccc3[nH]c(C)nc3c1)c1n[nH]cc12` [Example #248, (6-Methoxy-2H-pyrazolo[3,4-c]quinolin-4-yl)-(2-methyl-1H-benzoimidazol-5-yl)-amine], the IC50 was less than 5 µM on MYLK and 0.1 to 1 µM on LRRK2. The Ki on SYK kinase is 0.1 to 1 µM.
As for `COc1cc(OC)c2nc(Nc3ccc(OC)c(OC)c3)c3n[nH]cc3c2c1` [Example #251, (3,4-Dimethoxy-phenyl)-(6,8-dimethoxy-2H-pyrazolo[3,4-c]quinolin-4-yl)-amine], the IC50 at MYLK is less than 5 µM; on LRRK2, 0.1 to 1 µM. The Ki at SYK kinase is less than 0.01 µM.
Turning to `COc1cc(OC)c2nc(Nc3ccc(N4CCN(C5CC5)CC4)cc3)c3n[nH]cc3c2c1` [Example #252, [4-(4-Cyclopropyl-piperazin-1-yl)-phenyl]-(6,8-dimethoxy-2H-pyrazolo[3,4-c]quinolin-4-yl)-amine], the figures for the IC50 on MYLK and on LRRK2 were less than 5 µM and 0.1 to 1 µM, respectively. Further, at SYK kinase, the Ki is 0.1 to 1 µM.
For the compound `COc1ccc2nc(Nc3ccc(NCCCN(C)C)nc3)c3n[nH]cc3c2c1` [Example #253, N2-(3-(dimethylamino)propyl)-N5-(8-methoxy-2H-pyrazolo[3,4-c]quinolin-4-yl)pyridine-2,5-diamine], the values for the IC50 on MYLK and at LRRK2 were less than 5 µM and 0.1 to 1 µM, respectively. In addition, the Ki at SYK kinase is 0.1 to 1 µM.
On to `COc1ccc2nc(Nc3ccc(NCCN(C)C)nc3)c3n[nH]cc3c2c1` [Example #254, N2-(2-(dimethylamino)ethyl)-N5-(8-methoxy-2H-pyrazolo[3,4-c]quinolin-4-yl)pyridine-2,5-diamine], for which the IC50 was less than 5 µM on MYLK and 0.1 to 1 µM at LRRK2. Further, the Ki at SYK kinase was 0.01 to 0.1 µM.
For `COc1ccc2nc(Nc3ccc(OC4CCN(C)CC4)nc3)c3n[nH]cc3c2c1` [Example #255, (8-Methoxy-2H-pyrazolo[3,4-c]quinolin-4-yl)-[6-(1-methyl-piperidin-4-yloxy)-pyridin-3-yl]-amine], the values for the IC50 on MYLK and at LRRK2 were less than 5 µM and 0.1 to 1 µM, respectively. Moreover, the Ki on SYK kinase is 0.01 to 0.1 µM.
`COc1ccc2c(c1)nc(Nc1ccc3c(c1)NC(=O)CCC3)c1n[nH]cc12` [Example #257, 8-((7-methoxy-2H-pyrazolo[3,4-c]quinolin-4-yl)amino)-4,5-dihydro-1H-benzo[b]azepin-2(3H)-one]: the IC50 on MYLK was less than 5 µM; on LRRK2 it was 0.1 to 1 µM. Also, on SYK kinase, the Ki is less than 0.01 µM.
Regarding `COc1cccc2c1nc(Nc1ccc3c(c1)OCCO3)c1n[nH]cc12` [Example #258, (2,3-Dihydro-benzo[1,4]dioxin-6-yl)-(6-methoxy-2H-pyrazolo[3,4-c]quinolin-4-yl)-amine], the IC50 at MYLK was less than 5 µM; on LRRK2, 0.1 to 1 µM. The Ki at SYK kinase was 0.1 to 1 µM.
Turning to `COc1ccc2c(c1)nc(Nc1ccc(N3CCN(C4CC4)CC3)cc1)c1n[nH]cc12` [Example #262, [4-(4-Cyclopropyl-piperazin-1-yl)-phenyl]-(7-methoxy-2H-pyrazolo[3,4-c]quinolin-4-yl)-amine], the IC50 on MYLK is less than 5 µM; on LRRK2, 0.1 to 1 µM. For the same compound, the Ki at SYK kinase is 0.01 to 0.1 µM.
Consider `COc1ccc2c(c1)nc(Nc1ccc3[nH]c(C)nc3c1)c1n[nH]cc12` [Example #264, (7-Methoxy-2H-pyrazolo[3,4-c]quinolin-4-yl)-(2-methyl-1H-benzoimidazol-5-yl)-amine], for which the IC50 was less than 5 µM on MYLK and 0.1 to 1 µM at LRRK2. Also, the Ki at SYK kinase is 0.01 to 0.1 µM.
The corresponding values for `COc1ccc2c(c1)nc(Nc1ccc3c(c1)NC(=O)CO3)c1n[nH]cc12` [Example #266, 6-((7-methoxy-2H-pyrazolo[3,4-c]quinolin-4-yl)amino)-2H-benzo[b][1,4]oxazin-3(4H)-one] are less than 5 µM, 0.01 to 0.1 µM and less than 0.01 µM.
For the compound `COc1cccc2c1nc(Nc1ccc3[nH]ncc3c1)c1n[nH]cc12` [Example #268, (1H-Indazol-5-yl)-(6-methoxy-2H-pyrazolo[3,4-c]quinolin-4-yl)-amine], the concentration for half-maximal inhibition (IC50) at MYLK is less than 5 µM; on LRRK2, 0.1 to 1 µM. For the same compound, at SYK kinase, the Ki was 0.01 to 0.1 µM.

By IC50 is commonly meant the midpoint of a concentration-inhibition curve.
